In ChEMBL document CHEMBL1138436, “Biological activity and chemistry of taxoids from the Japanese yew, Taxus cuspidata” (J Nat Prod, 2004):

Assays:
Assay type in all cases: functional
OVCAR-4 = assay: Growth inhibition of human OVCAR4 cells; details: read-out: pTGI (converted)
[1] = Growth inhibition of human MKN1 cells
SNB-75 = assay: Growth inhibition of human SNB75 cells
HCT-15 = assay: Growth inhibition of human HCT15 cells
NCI-H23 = assay: Growth inhibition of human NCI-H23 cells
HT-29 = assay: Growth inhibition of human HT-29 cells
KM12 = assay: Growth inhibition of human KM12 cells
DMS-273 = assay: Growth inhibition of human DMS273 cells
U-251 = assay: Growth inhibition of human U251 cells
[2] = Growth inhibition of human RXF631L cells
A549 = assay: Growth inhibition of human A549 cells
HCT-116 = assay: Growth inhibition of human HCT116 cells
MCF7 = assay: Growth inhibition of human MCF7 cells
MKN-45 = assay: Growth inhibition of human MKN45 cells
DMS-114 = assay: Growth inhibition of human DMS114 cells
[3] = read-out: LC50 (the source's name)
[4] = read-out: pLC50 (the source's name) (converted)

**Q.** What does the source list for `C=C1[C@@H](OC(=O)/C=C/c2ccccc2)C[C@H](OC(C)=O)[C@]2(C)[C@@H]1C[C@]1(C(C)(C)O)C[C@H](OC(C)=O)C(C)=C1[C@@H](OC(=O)c1ccccc1)[C@@H]2OC(C)=O` [TAXUSPINE A]?
**A.** TGI (OVCAR-4): 100 µM; GI50 ([1]; MKN-1, read-out: GI50): 93 µM; CC50 ([1]; MKN-1, read-out: LC50 (the source's name)): > 100 µM; TGI ([1]; MKN-1, read-out: TGI): > 100 µM; GI50 ([1]; MKN-1, read-out: pGI50 (converted)): 93.3 µM; CC50 ([1]; MKN-1, read-out: pLC50 (the source's name) (converted)): 100 µM; TGI ([1]; MKN-1, read-out: pTGI (converted)): 100 µM; GI50 (SNB-75; read-out: GI50): 7.3 µM; CC50 (SNB-75; [3]): > 100 µM; TGI (SNB-75; read-out: TGI): 68 µM; GI50 (SNB-75; read-out: pGI50 (converted)): 7.24 µM; CC50 (SNB-75; [4]): 100 µM; TGI (SNB-75; read-out: pTGI (converted)): 67.6 µM; GI50 (HCT-15; read-out: GI50): 29 µM; CC50 (HCT-15; [3]): > 100 µM; TGI (HCT-15; read-out: TGI): > 100 µM; GI50 (HCT-15; read-out: pGI50 (converted)): 28.8 µM; CC50 (HCT-15; [4]): 100 µM; TGI (HCT-15; read-out: pTGI (converted)): 100 µM; GI50 (NCI-H23; read-out: GI50): 100 µM; CC50 (NCI-H23; [3]): > 100 µM; TGI (NCI-H23; read-out: TGI): > 100 µM; GI50 (NCI-H23; read-out: pGI50 (converted)): 100 µM; CC50 (NCI-H23; [4]): 100 µM; GI50 (HT-29; read-out: GI50): 43 µM; CC50 (HT-29; [3]): > 100 µM; TGI (HT-29; read-out: TGI): > 100 µM; GI50 (HT-29; read-out: pGI50 (converted)): 43.7 µM; TGI (HT-29; read-out: pTGI (converted)): 100 µM; GI50 (KM12; read-out: GI50): 6.4 µM; CC50 (KM12; [3]): > 100 µM; TGI (KM12; read-out: TGI): > 100 µM; GI50 (KM12; read-out: pGI50 (converted)): 6.46 µM; CC50 (KM12; [4]): 100 µM; TGI (KM12; read-out: pTGI (converted)): 100 µM; GI50 (DMS-273; read-out: GI50): 4.2 µM; CC50 (DMS-273; [3]): > 100 µM; TGI (DMS-273; read-out: TGI): > 100 µM; GI50 (DMS-273; read-out: pGI50 (converted)): 4.37 µM; TGI (DMS-273; read-out: pTGI (converted)): 100 µM; TGI (U-251): > 100 µM; GI50 (U-251; read-out: GI50): 71 µM; CC50 (U-251; [3]): > 100 µM; GI50 (U-251; read-out: pGI50 (converted)): 70.8 µM; TGI ([2]; RXF 631): > 100 µM; GI50 ([2]; RXF 631, read-out: GI50): 100 µM; CC50 ([2]; RXF 631, read-out: LC50 (the source's name)): > 100 µM; GI50 ([2]; RXF 631, read-out: pGI50 (converted)): 100 µM; CC50 ([2]; RXF 631, read-out: pLC50 (the source's name) (converted)): 100 µM; GI50 (A549; read-out: GI50): 9.6 µM; CC50 (A549; [3]): > 100 µM; TGI (A549; read-out: TGI): > 100 µM; GI50 (A549; read-out: pGI50 (converted)): 9.55 µM; CC50 (A549; [4]): 100 µM; TGI (A549; read-out: pTGI (converted)): 100 µM; TGI (HCT-116): > 100 µM; GI50 (HCT-116; read-out: GI50): 5.6 µM; CC50 (HCT-116; [3]): > 100 µM; GI50 (HCT-116; read-out: pGI50 (converted)): 5.62 µM; CC50 (HCT-116; [4]): 100 µM; GI50 (MCF7; read-out: GI50): 9.3 µM; CC50 (MCF7; [3]): > 100 µM; TGI (MCF7; read-out: TGI): > 100 µM; GI50 (MCF7; read-out: pGI50 (converted)): 9.33 µM; CC50 (MCF7; [4]): 100 µM; TGI (MCF7; read-out: pTGI (converted)): 100 µM; GI50 (MKN-45; read-out: GI50): > 100 µM; CC50 (MKN-45; [3]): > 100 µM; TGI (MKN-45; read-out: TGI): > 100 µM; GI50 (MKN-45; read-out: pGI50 (converted)): 100 µM; CC50 (MKN-45; [4]): 100 µM; TGI (MKN-45; read-out: pTGI (converted)): 100 µM; GI50 (DMS-114; read-out: GI50): 7.8 µM; CC50 (DMS-114; [3]): > 100 µM; TGI (DMS-114; read-out: TGI): > 100 µM; GI50 (DMS-114; read-out: pGI50 (converted)): 7.76 µM
